Earlier results on one compound are cited in patent US7666823B2, “Lens care solutions” (Novartis AG, priority 2005, dated 2010).

Molecules are shown by their SMILES.

The conditions of the data set: dissociation constant of the dibasic compound, aqueous.

Consider `OCC(CO)(CO)NCCCNC(CO)(CO)CO` [bis-TRIS-propane, 1,3-bis(tris[hydroxymethyl]methylamino)propane], for which the pKa1 is listed as 6.8 and the pKa2 is given as 9.5.
